Experimental findings from BindingDB's records for doi:10.1021/jm021050c (Universit&#233, 2003) are described below.

Each structure is given as a SMILES string.

This assay concerns the target imidazoline I2 binding site (Oryctolagus cuniculus). Briefly: In vitro binding affinity determined against imidazoline receptor I-2 using rabbit kidney preparation.
For `c1cc2c3c(c1)OC(C1=NCCN1)CN3CCCC2` (stereo unspecified) [2-(4,5-Dihydro-1H-imidazol-2-yl)-1,2,7,8,9,10-hexahydro-3-oxa-10a-aza-cyclohepta[de]naphthalene], the Ki stood at 643 nM.

The compound `CN1CC(C)(C2=NCCN2)Oc2ccccc21` (stereo unspecified) [2-(4,5-Dihydro-1H-imidazol-2-yl)-2,4-dimethyl-3,4-dihydro-2H-benzo[1,4]oxazine] came in with a Ki of more than 10000 nM.

In turn, `c1ccc2c(c1)NCC(C1=NCCN1)O2` (stereo unspecified) [2-(4,5-Dihydro-1H-imidazol-2-yl)-3,4-dihydro-2H-benzo[1,4]oxazine] had a Ki of 51 nM.

For `Cc1cccc2c1N(C)CC(C1=NCCN1)O2` (stereo unspecified) [2-(4,5-Dihydro-1H-imidazol-2-yl)-4,5-dimethyl-3,4-dihydro-2H-benzo[1,4]oxazine], the Ki worked out at 470 nM.

`Cc1cc(C)c2c(c1)N(C)CC(C1=NCCN1)O2` (stereo unspecified) [2-(4,5-Dihydro-1H-imidazol-2-yl)-4,6,8-trimethyl-3,4-dihydro-2H-benzo[1,4]oxazine] had a Ki of more than 1000 nM.

Take `Cc1ccc2c(c1)OC(C1=NCCN1)CN2C` (stereo unspecified) [2-(4,5-Dihydro-1H-imidazol-2-yl)-4,7-dimethyl-3,4-dihydro-2H-benzo[1,4]oxazine]: the Ki came out at 47 nM.

The compound `Cc1cccc2c1OC(C1=NCCN1)CN2C` (stereo unspecified) [2-(4,5-Dihydro-1H-imidazol-2-yl)-4,8-dimethyl-3,4-dihydro-2H-benzo[1,4]oxazine] yielded a Ki of 54 nM.

In the case of `CCCC1(C2=NCCN2)CN(C)c2ccccc2O1` (stereo unspecified) [2-(4,5-Dihydro-1H-imidazol-2-yl)-4-methyl-2-propyl-3,4-dihydro-2H-benzo[1,4]oxazine], the affinity corresponds to a Ki of 8530 nM.

For the compound `COC(=O)c1ccc2c(c1)N(C)CC(C1=NCCN1)O2` (stereo unspecified) [2-(4,5-Dihydro-1H-imidazol-2-yl)-4-methyl-3,4-dihydro-2H-benzo[1,4]oxazine-6-carboxylic acid methyl ester], the Ki came out at 7 nM.

Consider `CN1CC(C2=NCCN2)Oc2cc3ccccc3cc21` (stereo unspecified) [2-(4,5-Dihydro-1H-imidazol-2-yl)-4-methyl-3,4-dihydro-2H-naphtho[2,3-b][1,4]oxazine], for which the Ki stood at 278 nM.

Consider `CCOCc1ccc2c(c1)N(C)CC(C1=NCCN1)O2` (stereo unspecified) [2-(4,5-Dihydro-1H-imidazol-2-yl)-6-ethoxymethyl-4-methyl-3,4-dihydro-2H-benzo[1,4]oxazine], for which the Ki was 17 nM.

`COc1cc(=O)n2c3c(cccc13)OC(C1=NCCN1)C2` (stereo unspecified) [2-(4,5-Dihydro-1H-imidazol-2-yl)-6-methoxy-2,3-dihydro-1-oxa-3a-aza-phenalen-4-one] returned a Ki of 750 nM.

`Cc1ccc2c3c1CCCN3CC(C1=NCCN1)O2` (stereo unspecified) [2-(4,5-Dihydro-1H-imidazol-2-yl)-7-methyl-2,3,5,6-tetrahydro-4H-1-oxa-3a-aza-phenalene] registered a Ki of more than 1000 nM.

On to `c1cc2c3c(c1)OC(C1=NCCN1)CN3CC2` (stereo unspecified) [4-(4,5-Dihydro-1H-imidazol-2-yl)-1,2,3,4-tetrahydro-5-oxa-2a-aza-acenaphthylene], for which the Ki came out at 33 nM.

As to `CN1CC(C2=NCCN2)Oc2ccc(Cl)cc21` (stereo unspecified) [6-Chloro-2-(4,5-dihydro-1H-imidazol-2-yl)-4-methyl-3,4-dihydro-2H-benzo[1,4]oxazine], the affinity corresponds to a Ki of 173 nM.

Compound `CN1CC(C2=NCCN2)Oc2ccc(CO)cc21` (stereo unspecified) [[2-(4,5-Dihydro-1H-imidazol-2-yl)-4-methyl-3,4-dihydro-2H-benzo[1,4]oxazin-6-yl]-methanol] had a Ki of 100 nM.

As usually defined, the Ki is a measure of affinity in units of concentration, obtained from inhibition or displacement.
